Consider five compounds from ChEMBL document CHEMBL3228036, “A new chemical series active against African trypanosomes: benzyltriphenylphosphonium salts” (J Med Chem, 1979).

Active and inactive are the calls of the source. The calls are words filed in the database; no cut-off is given here.

Data set [1] has as its system Trypanosoma brucei rhodesiense. In words: […] activity against Trypanosoma brucei rhodesiense Wellcome CT infected in ICR/HA mouse assessed as curated mouse at 424 mg/kg, sc treated within 2 hrs of parasite infection measured up to 30 days. Details: dose 424 mg/kg. The format is functional, organism-based.
Data set [2] deals with Trypanosoma brucei rhodesiense. In words: […] activity against Trypanosoma brucei rhodesiense Wellcome CT infected in ICR/HA mouse assessed as curated mouse at 424 mg/kg, po treated within 2 hrs of parasite infection measured up to 30 days. Details: dose 424 mg/kg. It counts as functional, organism-based.
Data set [3] has as its system Mus musculus. Nature of the data set: Toxicity in Trypanosoma brucei rhodesiense Wellcome CT infected ICR/HA mouse assessed as mortality at 424 mg/kg, po treated within 2 hrs of parasite infection measured up to 30 days. The format is organism-based. Details: dose 424 mg/kg, route oral. The conditions noted are these: in vivo.
Data set [4] deals with Trypanosoma brucei rhodesiense. Nature of the data set: […] activity against Trypanosoma brucei rhodesiense Wellcome CT infected in ICR/HA mouse assessed as curated mouse at 106 mg/kg, sc treated within 2 hrs of parasite infection measured up to 30 days. It counts as functional, organism-based. Details: dose 106 mg/kg.
The test system of data set [5] is Trypanosoma brucei rhodesiense. In words: […] activity against Trypanosoma brucei rhodesiense Wellcome CT infected in ICR/HA mouse assessed as curated mouse at 53 mg/kg, sc treated within 2 hrs of parasite infection measured up to 30 days. It counts as functional, organism-based. Set-up: dose 53 mg/kg.
In data set [6] the test system is Trypanosoma brucei rhodesiense. Nature of the data set: […] activity against Trypanosoma brucei rhodesiense Wellcome CT infected in ICR/HA mouse assessed as curated mouse at 53 mg/kg, po treated within 2 hrs of parasite infection measured up to 30 days. The format is functional, organism-based. Set-up: dose 53 mg/kg.
The test system of data set [7] is Trypanosoma brucei rhodesiense. In words: […] activity against Trypanosoma brucei rhodesiense Wellcome CT infected in ICR/HA mouse assessed as curated mouse at 26.5 mg/kg, po treated within 2 hrs of parasite infection measured up to 30 days. It counts as functional, organism-based. Details: dose 26.5 mg/kg.
Data set [8] relates to Trypanosoma brucei rhodesiense. In words: […] activity against Trypanosoma brucei rhodesiense Wellcome CT infected in ICR/HA mouse assessed as curated mouse at 13.3 mg/kg, sc treated within 2 hrs of parasite infection measured up to 30 days. The format is functional, organism-based. Set-up: dose 13.3 mg/kg.
Data set [9] deals with Trypanosoma brucei rhodesiense. Nature of the data set: […] activity against Trypanosoma brucei rhodesiense Wellcome CT infected in ICR/HA mouse assessed as curated mouse at 13.3 mg/kg, po treated within 2 hrs of parasite infection measured up to 30 days. It counts as functional, organism-based. Set-up: dose 13.3 mg/kg.
For data set [10], the system named is Trypanosoma brucei rhodesiense. Nature of the data set: […] activity against Trypanosoma brucei rhodesiense Wellcome CT infected in ICR/HA mouse assessed as curated mouse at 6.5 mg/kg, sc treated within 2 hrs of parasite infection measured up to 30 days. The format is functional, organism-based. Details: dose 6.5 mg/kg.
The test system of data set [11] is Mus musculus. In words: Toxicity in Trypanosoma brucei rhodesiense Wellcome CT infected ICR/HA mouse assessed as mortality at 424 mg/kg, sc treated within 2 hrs of parasite infection measured up to 30 days. The format is organism-based. The following applies: in vivo. Set-up: dose 424 mg/kg, route subcutaneous.
The test system of data set [12] is Trypanosoma brucei rhodesiense. In words: […] activity against Trypanosoma brucei rhodesiense Wellcome CT infected in ICR/HA mouse assessed as curated mouse at 212 mg/kg, sc treated within 2 hrs of parasite infection measured up to 30 days. The format is functional, organism-based. Details: dose 212 mg/kg.
Data set [13] deals with Trypanosoma brucei rhodesiense. Nature of the data set: […] activity against Trypanosoma brucei rhodesiense Wellcome CT infected in ICR/HA mouse assessed as curated mouse at 212 mg/kg, po treated within 2 hrs of parasite infection measured up to 30 days. The format is functional, organism-based. Details: dose 212 mg/kg.
The subject of data set [14] is Mus musculus. Nature of the data set: Toxicity in Trypanosoma brucei rhodesiense Wellcome CT infected ICR/HA mouse assessed as mortality at 212 mg/kg, po treated within 2 hrs of parasite infection measured up to 30 days. The conditions noted are these: in vivo. Details: dose 212 mg/kg, route oral. The format is organism-based.
Data set [15] has as its system Trypanosoma brucei rhodesiense. In words: […] activity against Trypanosoma brucei rhodesiense Wellcome CT infected in ICR/HA mouse assessed as curated mouse at 106 mg/kg, po treated within 2 hrs of parasite infection measured up to 30 days. It counts as functional, organism-based. Details: dose 106 mg/kg.
Data set [16] concerns Trypanosoma brucei rhodesiense. Nature of the data set: […] activity against Trypanosoma brucei rhodesiense Wellcome CT infected in ICR/HA mouse assessed as curated mouse at 26.5 mg/kg, sc treated within 2 hrs of parasite infection measured up to 30 days. It counts as functional.
Data set [17] deals with Mus musculus. Nature of the data set: Toxicity in Trypanosoma brucei rhodesiense Wellcome CT infected ICR/HA mouse assessed as mortality at 212 mg/kg, sc treated within 2 hrs of parasite infection measured up to 30 days. It counts as organism-based. Set-up: dose 212 mg/kg, route subcutaneous. The following applies: in vivo.
In data set [18] the test system is Mus musculus. In words: Toxicity in Trypanosoma rhodesiense Wellcome CT infected ICR/HA mouse assessed as mortality at 106 mg/kg, sc treated within 2 hrs of parasite infection measured up to 30 days. Details: dose 106 mg/kg, route subcutaneous. The conditions noted are these: in vivo. It counts as organism-based.
In data set [19] the test system is Trypanosoma brucei rhodesiense. In words: […] activity against Trypanosoma brucei rhodesiense Wellcome CT infected in ICR/HA mouse assessed as curated mouse at 6.5 mg/kg, po treated within 2 hrs of parasite infection measured up to 30 days. Details: dose 6.5 mg/kg. The format is functional, organism-based.

With `Cc1ccccc1[P+](Cc1ccccc1)(c1ccccc1)c1ccccc1.[Cl-]`, the outcome in data set [1], in [2], in [4], in data set [5], in data set [6] and in data set [7] was inactive. For the same compound, the outcome in data set [8], in [9] and in [10] was inactive. Also, the Activity result in the data set with Mus musculus [3] and in the data set on Mus musculus [11] was “Toxic” in each case.
`Cc1ccc([P+](Cc2ccccc2)(c2ccccc2)c2ccccc2)cc1.[Cl-]`: the result in [1], in data set [2], in [12], in data set [13], in data set [15] and in [6] was inactive. For the same compound, the result in data set [16], in [7], in data set [8], in data set [9] and in [10] was inactive. Further, the Activity result in the data set with Mus musculus [3], in the data set on Mus musculus [14], in the data set with Mus musculus [11] and in the data set on Mus musculus [17] was “Toxic” each time.
Take `FC(F)(F)c1ccc(C[P+](c2ccccc2)(c2ccccc2)c2ccccc2)cc1.[Cl-]`: the result in data set [1], in [2], in data set [13], in data set [15], in [6] and in [16] was inactive. The result in data set [7], in data set [8] and in [9] was inactive. Besides, the Activity entry in the data set on Mus musculus [3], in the data set on Mus musculus [14], in the data set with Mus musculus [18] and in the data set with Mus musculus [11] was “Toxic” throughout.
As for `N=C(N)c1ccc(/C=C/c2ccc(C(=N)N)cc2)cc1` [STILBAMIDINE], the outcome in data set [1], in [2], in data set [12], in [13], in [4] and in data set [15] was Active. The outcome in data set [5], in [6] and in data set [8] was Active. Also, in data set [16] (route subcutaneous), the Activity amounted to 98%. The outcome in data set [19] was inactive.
Regarding `[Br-].c1ccc(C[P+](c2ccccc2)(c2ccccc2)c2ccccc2)cc1`, the result in [1], in data set [13], in data set [4], in [5], in data set [6] and in data set [16] was inactive. Besides, the result in data set [7], in [8], in data set [9] and in data set [10] was inactive. The Activity entry in the data set on Mus musculus [14] and in the data set on Mus musculus [11] was “Toxic” throughout.
